Laboratory results published in US20220132847A1, “CINNOLINIUM COMPOUNDS FOR USE IN A METHOD OF CONTROLLING UNWANTED PLANT GROWTH” (SYNGENTA CROP PROTECTION AG, priority 2019, published 2022).

Each compound was assayed on Chenopodium album (CHEAL) (assay: Post-emergence efficacy, glasshouse). Settings: Chenopodium album, post-emergence, 312 h; Application Rate 1000 g/Ha; evaluated after 13 days; 100=total damage to plant, 0=no damage to plant; read-out: Control of weed species after post-emergence application, CHEAL.
Type: in vivo
Procedure: (§1) Seeds of a variety of test species were sown in standard soil in pots. After cultivation for 14 days (post-emergence) under controlled conditions in a glasshouse (at 24/16° C., day/night; 14 hours light; 65% humidity), the plants were sprayed with an aqueous spray solution derived from the dissolution of the technical active ingredient formula (I) in a small amount of acetone and a special solvent and emulsifier mixture referred to as IF50 (11.12% Emulsogen EL360™+44.44% N-methylpyrrolidone+44.44% Dowanol DPM glycol ether), to create a 50 g/l solution which was then diluted to required concentration using 0.25% or 1% Empicol ESC70 (Sodium lauryl ether sulphate)+1% ammonium sulphate in water as diluent.
(§2) The test plants were then grown in a glasshouse under controlled conditions (at 24/16° C., day/night; 14 hours light; 65% humidity) and watered twice daily. After 13 days the test was evaluated (100=total damage to plant; 0=no damage to plant).
(§3) Ipomoea hederacea (IPOHE), Euphorbia heterophylla (EPHHL), Chenopodium album (CHEAL), Amaranthus palmeri (AMAPA), Lolium perenne (LOLPE), Digitaria sanguinalis (DIGSA), Eleusine indica (ELEIN), Echinochloa crus-galli (ECHCG), Setaria faberi (SETFA)

Structure (SMILES) | pest or weed control at 1000 g/ha
O=P([O-])(O)c1c[n+](CCO)nc2ccccc12 [Compound A67, hydroxy-[2-(2-hydroxyethyl)cinnolin-2-ium-4-yl]phosphinate] | 60%
CS(=O)(=O)[N-]C(=O)c1c[n+](CC(=O)NS(C)(=O)=O)nc2ccccc12 [Compound A13] | 0%
CC(C)P(=O)([O-])c1c[n+](C)nc2ccccc12 [Compound A46] | 100%
COP(=O)([O-])c1c[n+](CCO)nc2ccccc12 [Compound A68, [2-(2-hydroxyethyl)cinnolin-2-ium-4-yl]-methoxy-phosphinate] | 100%
C[n+]1cc(S(=O)(=O)[O-])c2ccccc2n1 [Compound A6, 2-methylcinnolin-2-ium-4-sulfonate] | 60%
COP(=O)([O-])c1c[n+](CC(=O)NS(C)(=O)=O)nc2ccccc12 [Compound A63, [2-[2-(methanesulfonamido)-2-oxo-ethyl]cinnolin-2-ium-4-yl]-methoxy-phosphinate] | 30%
C[n+]1cc(CCC(=O)O)c2ccccc2n1 [Compound A55, 3-(2-methylcinnolin-2-ium-4-yl)propanoic acid chloride] | 100%

Each compound was assayed on Setaria faberi (SETFA) (assay: Post-emergence efficacy, glasshouse). Settings: Setaria faberi, post-emergence, 312 h; Application Rate 1000 g/Ha; evaluated after 13 days; 100=total damage to plant, 0=no damage to plant; read-out: Control of weed species after post-emergence application, SETFA.
Type: in vivo
Procedure: as §1, §2, §3

Structure (SMILES) | pest or weed control at 1000 g/ha
O=P([O-])(O)c1c[n+](CCO)nc2ccccc12 [Compound A67, hydroxy-[2-(2-hydroxyethyl)cinnolin-2-ium-4-yl]phosphinate] | 50%
CS(=O)(=O)[N-]C(=O)c1c[n+](CC(=O)NS(C)(=O)=O)nc2ccccc12 [Compound A13] | 10%
CC(C)P(=O)([O-])c1c[n+](C)nc2ccccc12 [Compound A46] | 90%
COP(=O)([O-])c1c[n+](CCO)nc2ccccc12 [Compound A68, [2-(2-hydroxyethyl)cinnolin-2-ium-4-yl]-methoxy-phosphinate] | 90%
C[n+]1cc(S(=O)(=O)[O-])c2ccccc2n1 [Compound A6, 2-methylcinnolin-2-ium-4-sulfonate] | 10%
COP(=O)([O-])c1c[n+](CC(=O)NS(C)(=O)=O)nc2ccccc12 [Compound A63, [2-[2-(methanesulfonamido)-2-oxo-ethyl]cinnolin-2-ium-4-yl]-methoxy-phosphinate] | 60%
C[n+]1cc(CCC(=O)O)c2ccccc2n1 [Compound A55, 3-(2-methylcinnolin-2-ium-4-yl)propanoic acid chloride] | 30%

What follows are compounds tested on Echinochloa crus-galli (ECHCG) (assay: Post-emergence efficacy, glasshouse). Settings: Echinochloa crus-galli, post-emergence, 312 h; Application Rate 1000 g/Ha; evaluated after 13 days; 100=total damage to plant, 0=no damage to plant; read-out: Control of weed species after post-emergence application, ECHCG.
Type: in vivo
Procedure: as §1, §2, §3

Structure (SMILES) | pest or weed control at 1000 g/ha
O=P([O-])(O)c1c[n+](CCO)nc2ccccc12 [Compound A67, hydroxy-[2-(2-hydroxyethyl)cinnolin-2-ium-4-yl]phosphinate] | 20%
CS(=O)(=O)[N-]C(=O)c1c[n+](CC(=O)NS(C)(=O)=O)nc2ccccc12 [Compound A13] | 10%
CC(C)P(=O)([O-])c1c[n+](C)nc2ccccc12 [Compound A46] | 90%
COP(=O)([O-])c1c[n+](CCO)nc2ccccc12 [Compound A68, [2-(2-hydroxyethyl)cinnolin-2-ium-4-yl]-methoxy-phosphinate] | 60%
C[n+]1cc(S(=O)(=O)[O-])c2ccccc2n1 [Compound A6, 2-methylcinnolin-2-ium-4-sulfonate] | 10%
COP(=O)([O-])c1c[n+](CC(=O)NS(C)(=O)=O)nc2ccccc12 [Compound A63, [2-[2-(methanesulfonamido)-2-oxo-ethyl]cinnolin-2-ium-4-yl]-methoxy-phosphinate] | 50%
C[n+]1cc(CCC(=O)O)c2ccccc2n1 [Compound A55, 3-(2-methylcinnolin-2-ium-4-yl)propanoic acid chloride] | 90%

These compounds were tested on Eleusine indica (ELEIN) (assay: Post-emergence efficacy, glasshouse). Settings: Eleusine indica, post-emergence, 312 h; Application Rate 1000 g/Ha; evaluated after 13 days; 100=total damage to plant, 0=no damage to plant; read-out: Control of weed species after post-emergence application, ELEIN.
Type: in vivo
Procedure: as §1, §2, §3

Structure (SMILES) | pest or weed control at 1000 g/ha
O=P([O-])(O)c1c[n+](CCO)nc2ccccc12 [Compound A67, hydroxy-[2-(2-hydroxyethyl)cinnolin-2-ium-4-yl]phosphinate] | 10%
CS(=O)(=O)[N-]C(=O)c1c[n+](CC(=O)NS(C)(=O)=O)nc2ccccc12 [Compound A13] | 10%
CC(C)P(=O)([O-])c1c[n+](C)nc2ccccc12 [Compound A46] | 100%
COP(=O)([O-])c1c[n+](CCO)nc2ccccc12 [Compound A68, [2-(2-hydroxyethyl)cinnolin-2-ium-4-yl]-methoxy-phosphinate] | 100%
C[n+]1cc(S(=O)(=O)[O-])c2ccccc2n1 [Compound A6, 2-methylcinnolin-2-ium-4-sulfonate] | 10%
COP(=O)([O-])c1c[n+](CC(=O)NS(C)(=O)=O)nc2ccccc12 [Compound A63, [2-[2-(methanesulfonamido)-2-oxo-ethyl]cinnolin-2-ium-4-yl]-methoxy-phosphinate] | 50%
C[n+]1cc(CCC(=O)O)c2ccccc2n1 [Compound A55, 3-(2-methylcinnolin-2-ium-4-yl)propanoic acid chloride] | 100%

These compounds were tested on Lolium perenne (LOLPE) (assay: Post-emergence efficacy, glasshouse). Settings: Lolium perenne, post-emergence, 312 h; Application Rate 1000 g/Ha; evaluated after 13 days; 100=total damage to plant, 0=no damage to plant; read-out: Control of weed species after post-emergence application, LOLPE.
Type: in vivo
Procedure: as §1, §2, §3

Structure (SMILES) | pest or weed control at 1000 g/ha
O=P([O-])(O)c1c[n+](CCO)nc2ccccc12 [Compound A67, hydroxy-[2-(2-hydroxyethyl)cinnolin-2-ium-4-yl]phosphinate] | 0%
CS(=O)(=O)[N-]C(=O)c1c[n+](CC(=O)NS(C)(=O)=O)nc2ccccc12 [Compound A13] | 10%
CC(C)P(=O)([O-])c1c[n+](C)nc2ccccc12 [Compound A46] | 60%
COP(=O)([O-])c1c[n+](CCO)nc2ccccc12 [Compound A68, [2-(2-hydroxyethyl)cinnolin-2-ium-4-yl]-methoxy-phosphinate] | 40%
C[n+]1cc(S(=O)(=O)[O-])c2ccccc2n1 [Compound A6, 2-methylcinnolin-2-ium-4-sulfonate] | 10%
COP(=O)([O-])c1c[n+](CC(=O)NS(C)(=O)=O)nc2ccccc12 [Compound A63, [2-[2-(methanesulfonamido)-2-oxo-ethyl]cinnolin-2-ium-4-yl]-methoxy-phosphinate] | 10%
C[n+]1cc(CCC(=O)O)c2ccccc2n1 [Compound A55, 3-(2-methylcinnolin-2-ium-4-yl)propanoic acid chloride] | 20%

What follows are compounds tested on Ipomoea hederacea (IPOHE) (assay: Post-emergence efficacy, glasshouse). Settings: Ipomoea hederacea, post-emergence, 312 h; Application Rate 1000 g/Ha; evaluated after 13 days; 100=total damage to plant, 0=no damage to plant; read-out: Control of weed species after post-emergence application, IPOHE.
Type: in vivo
Procedure: as §1, §2, §3

Structure (SMILES) | pest or weed control at 1000 g/ha
O=P([O-])(O)c1c[n+](CCO)nc2ccccc12 [Compound A67, hydroxy-[2-(2-hydroxyethyl)cinnolin-2-ium-4-yl]phosphinate] | 30%
CS(=O)(=O)[N-]C(=O)c1c[n+](CC(=O)NS(C)(=O)=O)nc2ccccc12 [Compound A13] | 10%
CC(C)P(=O)([O-])c1c[n+](C)nc2ccccc12 [Compound A46] | 100%
COP(=O)([O-])c1c[n+](CCO)nc2ccccc12 [Compound A68, [2-(2-hydroxyethyl)cinnolin-2-ium-4-yl]-methoxy-phosphinate] | 100%
C[n+]1cc(S(=O)(=O)[O-])c2ccccc2n1 [Compound A6, 2-methylcinnolin-2-ium-4-sulfonate] | 0%
COP(=O)([O-])c1c[n+](CC(=O)NS(C)(=O)=O)nc2ccccc12 [Compound A63, [2-[2-(methanesulfonamido)-2-oxo-ethyl]cinnolin-2-ium-4-yl]-methoxy-phosphinate] | 30%
C[n+]1cc(CCC(=O)O)c2ccccc2n1 [Compound A55, 3-(2-methylcinnolin-2-ium-4-yl)propanoic acid chloride] | 70%

What follows are compounds tested on Digitaria sanguinalis (DIGSA) (assay: Post-emergence efficacy, glasshouse). Settings: Digitaria sanguinalis, post-emergence, 312 h; Application Rate 1000 g/Ha; evaluated after 13 days; 100=total damage to plant, 0=no damage to plant; read-out: Control of weed species after post-emergence application, DIGSA.
Type: in vivo
Procedure: as §1, §2, §3

Structure (SMILES) | pest or weed control at 1000 g/ha
O=P([O-])(O)c1c[n+](CCO)nc2ccccc12 [Compound A67, hydroxy-[2-(2-hydroxyethyl)cinnolin-2-ium-4-yl]phosphinate] | 90%
CS(=O)(=O)[N-]C(=O)c1c[n+](CC(=O)NS(C)(=O)=O)nc2ccccc12 [Compound A13] | 10%
CC(C)P(=O)([O-])c1c[n+](C)nc2ccccc12 [Compound A46] | 100%
COP(=O)([O-])c1c[n+](CCO)nc2ccccc12 [Compound A68, [2-(2-hydroxyethyl)cinnolin-2-ium-4-yl]-methoxy-phosphinate] | 100%
C[n+]1cc(S(=O)(=O)[O-])c2ccccc2n1 [Compound A6, 2-methylcinnolin-2-ium-4-sulfonate] | 10%
COP(=O)([O-])c1c[n+](CC(=O)NS(C)(=O)=O)nc2ccccc12 [Compound A63, [2-[2-(methanesulfonamido)-2-oxo-ethyl]cinnolin-2-ium-4-yl]-methoxy-phosphinate] | 70%
C[n+]1cc(CCC(=O)O)c2ccccc2n1 [Compound A55, 3-(2-methylcinnolin-2-ium-4-yl)propanoic acid chloride] | 100%

These compounds were tested on Amaranthus palmeri (AMAPA) (assay: Post-emergence efficacy, glasshouse). Settings: Amaranthus palmeri, post-emergence, 312 h; Application Rate 1000 g/Ha; evaluated after 13 days; 100=total damage to plant, 0=no damage to plant; read-out: Control of weed species after post-emergence application, AMAPA.
Type: in vivo
Procedure: as §1, §2, §3

Structure (SMILES) | pest or weed control at 1000 g/ha
O=P([O-])(O)c1c[n+](CCO)nc2ccccc12 [Compound A67, hydroxy-[2-(2-hydroxyethyl)cinnolin-2-ium-4-yl]phosphinate] | 30%
CS(=O)(=O)[N-]C(=O)c1c[n+](CC(=O)NS(C)(=O)=O)nc2ccccc12 [Compound A13] | 0%
CC(C)P(=O)([O-])c1c[n+](C)nc2ccccc12 [Compound A46] | 100%
COP(=O)([O-])c1c[n+](CCO)nc2ccccc12 [Compound A68, [2-(2-hydroxyethyl)cinnolin-2-ium-4-yl]-methoxy-phosphinate] | 100%
C[n+]1cc(S(=O)(=O)[O-])c2ccccc2n1 [Compound A6, 2-methylcinnolin-2-ium-4-sulfonate] | 10%
COP(=O)([O-])c1c[n+](CC(=O)NS(C)(=O)=O)nc2ccccc12 [Compound A63, [2-[2-(methanesulfonamido)-2-oxo-ethyl]cinnolin-2-ium-4-yl]-methoxy-phosphinate] | 30%
C[n+]1cc(CCC(=O)O)c2ccccc2n1 [Compound A55, 3-(2-methylcinnolin-2-ium-4-yl)propanoic acid chloride] | 90%

The compounds below were run on Euphorbia heterophylla (EPHHL) (assay: Post-emergence efficacy, glasshouse). Settings: Euphorbia heterophylla, post-emergence, 312 h; Application Rate 1000 g/Ha; evaluated after 13 days; 100=total damage to plant, 0=no damage to plant; read-out: Control of weed species after post-emergence application, EPHHL.
Type: in vivo
Procedure: as §1, §2, §3

Structure (SMILES) | pest or weed control at 1000 g/ha
O=P([O-])(O)c1c[n+](CCO)nc2ccccc12 [Compound A67, hydroxy-[2-(2-hydroxyethyl)cinnolin-2-ium-4-yl]phosphinate] | 30%
CS(=O)(=O)[N-]C(=O)c1c[n+](CC(=O)NS(C)(=O)=O)nc2ccccc12 [Compound A13] | 10%
CC(C)P(=O)([O-])c1c[n+](C)nc2ccccc12 [Compound A46] | 100%
COP(=O)([O-])c1c[n+](CCO)nc2ccccc12 [Compound A68, [2-(2-hydroxyethyl)cinnolin-2-ium-4-yl]-methoxy-phosphinate] | 100%
C[n+]1cc(S(=O)(=O)[O-])c2ccccc2n1 [Compound A6, 2-methylcinnolin-2-ium-4-sulfonate] | 60%
COP(=O)([O-])c1c[n+](CC(=O)NS(C)(=O)=O)nc2ccccc12 [Compound A63, [2-[2-(methanesulfonamido)-2-oxo-ethyl]cinnolin-2-ium-4-yl]-methoxy-phosphinate] | 70%
C[n+]1cc(CCC(=O)O)c2ccccc2n1 [Compound A55, 3-(2-methylcinnolin-2-ium-4-yl)propanoic acid chloride] | 70%
